In US8069687B2, “Working media for refrigeration processes” (priority 2005, dated 2011):
Read-outs that look alike come from different tables or passages of the source.

What was measured:
[1] = Absorption isotherm: partial pressure of 2,2,2-trifluoroethanol over sorbent material at 70° C.; type: physicochemical
Source text: Absorption isotherms result from the amount of a volatile component (here the refrigerant) which, at a predetermined temperature and at pressures which are generally lower than the vapor pressure of the pure refrigerant; dissolves, in an equilibrium state, in a very high-boiling or nonvolatile liquid (here the sorbent material). The pairs of values of concentration of the liquid binary mixture and the pressure of the volatile component over the liquid at a given temperature thereby give an absorption isotherm. […] In the absorption refrigerating machines considered here, a sorbent material shall absorb the refrigerant after its expansion and vaporization at a low pressure. An advantageous sorbent material, at a given pressure, takes up as much refrigerant as possible, whereupon the volume and the masses of the circulating streams minimize (or lower pressure for the same composition). This leads to the fact that the unit achieves a higher degree of efficiency and can be more advantageous with respect to its dimensions and also the amount of absorber used.
The measurements were carried out at 70° C.

[2] = Absorption isotherm: partial pressure of R134a over sorbent material at 20° C.; type: physicochemical
Source text: Absorption isotherms result from the amount of a volatile component (here the refrigerant) which, at a predetermined temperature and at pressures which are generally lower than the vapor pressure of the pure refrigerant; dissolves, in an equilibrium state, in a very high-boiling or nonvolatile liquid (here the sorbent material). The pairs of values of concentration of the liquid binary mixture and the pressure of the volatile component over the liquid at a given temperature thereby give an absorption isotherm. Such absorption isotherms of high-boiling or nonvolatile liquid substances can be measured using various dynamic or static experimental methods of which, here, by way of example reference is made to a dynamic, gravimetric method, as was presented by Sadowski G., Mokrushina L. V., Arlt, W., “Finite and infinite dilution activity coefficients in polycarbonate systems”, Fluid Phase Equilibria, 139 (1997) 391-493. In the absorption refrigerating machines considered here, a sorbent material shall absorb the refrigerant after its expansion and vaporization at a low pressure. An advantageous sorbent material, at a given pressure, takes up as much refrigerant as possible, whereupon the volume and the masses of the circulating streams minimize (or lower pressure for the same composition). This leads to the fact that the unit achieves a higher degree of efficiency and can be more advantageous with respect to its dimensions and also the amount of absorber used.
The measurements were carried out at 20° C.

[3] = as described by N. Bicak; cited from earlier work
[4] = 25° C.; as described by N. Bicak; cited from earlier work
[5] = Stability to hydrolysis
[6] = Source text: If, as described in • W. Pennington; How to find accurate vapor pressures of lithium bromide water solutions; Refrig. Eng. 63 (May 1955) 57-61 or • D. A. Boryta, A. J. Maas, C. B. Grant; Vapor pressure-temperature-concentration relationship for system lithium bromide and water (40-70% lithium bromide); J. Chem. Eng. Data 20 (1975) 316-319 or • S. Iyoki, T. Uemura; Vapor pressure of the water-lithium bromide system and water-lithium bromide-zinc bromide-lithium chloride system at high temperatures; Int. […] In the prior art, the use of LiBr as absorbent and water as refrigerant is very widespread.
(§1) If, as described in • W. Pennington; How to find accurate vapor pressures of lithium bromide water solutions; Refrig. Eng. 63 (May 1955) 57-61 or • D. A. Boryta, A. J. Maas, C. B. Grant; Vapor pressure-temperature-concentration relationship for system lithium bromide and water (40-70% lithium bromide); J. Chem. Eng. Data 20 (1975) 316-319 or • S. Iyoki, T. Uemura; Vapor pressure of the water-lithium bromide system and water-lithium bromide-zinc bromide-lithium chloride system at high temperatures; Int.
as §1, with “Ethoxylated cocodiethanolammonium chloride is an ionic liquid which can be obtained under the name TEGO IL K5 from Degussa AG. If,” for “If,”
as §1, with “The ionic liquid diethylpolypropoxymethylammonium chloride can be obtained from Degussa AG under the name TEGO IL P9. If,” for “If,”
as §1

[7] = Crystallization of the sorbent in water; type: physicochemical; conditions: T≧20° C.; concentrations greater than 65 mass % ionic liquid in water
[8] = in vivo; cited from earlier work
[9] = depending on system temperature; prior art; cited from earlier work
[10] = mass fraction of ionic liquid 0.20
[11] = mass fraction of ionic liquid 0.40
[12] = mass fraction of ionic liquid 0.60
[13] = mass fraction of ionic liquid 0.80
[14] = mass fraction of the sorbent material 0.20
[15] = mass fraction of the sorbent material 0.40
[16] = mass fraction of the sorbent material 0.60
[17] = mass fraction of the sorbent material 0.80
[18] = 20° C., 80 mass % ionic liquid and 20 mass % water
[19] = 20° C., 80 mass % ionic liquid and 20 mass % water, pure water 23.37 mbar
[20] = 40° C., 92 mass % ionic liquid and 8 mass % water

Molecule	Partial pressure of 2,2,2-trifluoroethanol [1, 10]	Partial pressure of 2,2,2-trifluoroethanol [1, 11]	Partial pressure of 2,2,2-trifluoroethanol [1, 12]	Partial pressure of 2,2,2-trifluoroethanol [1, 13]	Partial pressure of R134a [2, 14]	crystallization in water [7]	further results
1,3-dimethylimidazolium dimethyl phosphate [MMIM MMPO4]	39.7 kPa	10.7 kPa	3.2 kPa	0.8 kPa	439 kPa	–	Partial pressure of R134a [2, 15]: 303 kPa; Partial pressure of R134a [2, 16]: 164 kPa; Partial pressure of R134a [2, 17]: 57 kPa
NCCO.O=CO [2-Hydroxyethylammonium formate]	–	–	–	–	–	–	thermal stability, upper temperature [3]: up to 150 °C; vapor pressure [4]: 2.2×10^−2 torr; stability to hydrolysis [5]: comparatively poor stability to hydrolysis
CCCCn1cc[n+](C)c1.F[B-](F)(F)F [BMIM BF4, 1-butyl-3-methylimidazolium tetrafluoroborate, reference compound]	70.2 kPa	53.0 kPa	35.9 kPa	18.0 kPa	–	–	–
CCCCn1cc[n+](C)c1.[Br-] [BMIM Br, 1-butyl-3-methylimidazolium bromide, reference compound]	42.2 kPa	15.1 kPa	5.6 kPa	1.6 kPa	–	–	–
CCn1cc[n+](C)c1.[Cl-] [EMIM Cl]	19.3 kPa	4.0 kPa	1.0 kPa	0.2 kPa	327 kPa	–	Partial pressure of R134a [2, 15]: 135 kPa; Partial pressure of R134a [2, 16]: 37 kPa; Partial pressure of R134a [2, 17]: 7 kPa
CCn1cc[n+](C)c1 [EMIM EtSO4]	–	–	–	–	360 kPa	does not crystallize out	water partial pressure [6, 18]: 15 mbar; factor by which the vapor pressure of pure water was lowered [6, 19]: 1.56; LD50 [8]: > 2000 mg/kg
CCn1cc[n+](C)c1.CS(=O)(=O)[O-] [EMIM MeSO3]	39.7 kPa	13.5 kPa	4.6 kPa	1.2 kPa	–	does not crystallize out	water partial pressure ([6]; 30° C., 87 mass % ionic liquid and 13 mass % water): 9 mbar; factor by which the vapor pressure of pure water was lowered ([6]; 30° C., 87 mass % ionic liquid and 13 mass % water, pure water 42.41 mbar): 4.7
CC(=O)[O-].CCn1cc[n+](C)c1 [EMIM OAc]	24.7 kPa	3.7 kPa	0.8 kPa	0.2 kPa	360 kPa	–	Partial pressure of R134a [2, 15]: 175 kPa; Partial pressure of R134a [2, 16]: 66 kPa; Partial pressure of R134a [2, 17]: 17 kPa
CCn1cc[n+](C)c1.[OH-] [EMIM OH]	5.0 kPa	<0.1 kPa	<0.1 kPa	<0.1 kPa	345 kPa	–	Partial pressure of R134a [2, 15]: 112 kPa; Partial pressure of R134a [2, 16]: 20 kPa; Partial pressure of R134a [2, 17]: 3 kPa
[Br-].[Li+] [LiBr, lithium bromide]	–	–	–	–	–	–	LiBr concentration above which LiBr crystallizes in water [9]: above 60 mass %
CCCC[n+]1ccc(C)cc1.[Cl-] [MBP Cl, 1-butyl-4-methylpyridinium chloride]	25.2 kPa	5.0 kPa	1.3 kPa	0.3 kPa	–	–	–
C[N+](C)(CCO)CCO.[Cl-] [Salt A, bis(2-hydroxyethyl)dimethylammonium chloride]	33.0 kPa	11.1 kPa	3.6 kPa	0.7 kPa	–	–	–
CS(=O)(=O)[O-].C[N+](C)(CCO)CCO [Salt B, bis(2-hydroxyethyl)dimethylammonium methylsulfonate]	42.0 kPa	–	–	1.6 kPa	–	does not crystallize out	water partial pressure [6, 18]: 14 mbar; pressure reduction factor compared with the vapor pressure of pure water [6, 20]: 5.3; water partial pressure [6, 20]: approximately 13.9 mbar
diethylpolypropoxymethylammonium chloride [TEGO IL P9]	–	–	–	–	–	does not crystallize out	water partial pressure ([6]; 30° C., 94 mass % ionic liquid and 6 mass % water): 6 mbar; factor by which the vapor pressure of pure water was decreased ([6]; 30° C., 94 mass % ionic liquid and 6 mass % water, pure water 42.41 mbar): 7.07
ethoxylated cocodiethanolammonium chloride [TEGO IL K5]	–	–	–	–	–	does not crystallize out	water partial pressure [6, 18]: 17 mbar; factor by which the vapor pressure of pure water was lowered [6, 19]: 1.38
